Results reported in ChEMBL document CHEMBL1129930, “Analogues of methotrexate in rheumatoid arthritis. 2. Effects of 5-deazaaminopterin, 5,10-dideazaaminopterin, and analogues on type II collagen-induced arthritis in mice” (J Med Chem, 1997).

Key:
[1] = tested on: Mus musculus; assay: Tested for antiinflammatory activity on mouse type II collagen arthritis as Paw swelling of all animals in each group on day 23 at intraperitoneal dose of 1.5 mg/kg; format: functional
[2] = tested on: Mus musculus; assay: Tested for antiinflammatory activity on mouse type II collagen arthritis as Paw swelling of all animals in each group on day 37 at intraperitoneal dose of 3 mg/kg; format: functional
[3] = tested on: Mus musculus; assay: Incidence of disease (mouse type II collagen) was scored as the percentage of animals within each experimental group that exhibited joint or limb inflammation on day 30 at intraperitoneal dose of 3 mg/kg; format: functional
[4] = tested on: Mus musculus; assay: Incidence of disease (mouse type II collagen) was scored as the percentage of animals within each experimental group that exhibited joint or limb inflammation on day 37 at intraperitoneal dose of 1.5 mg/kg; format: functional
[5] = tested on: Mus musculus; assay: Incidence of disease (mouse type II collagen) was scored as the percentage of animals within each experimental group that exhibited joint or limb inflammation on day 23 at intraperitoneal dose of 1.5 mg/kg; format: functional
[6] = tested on: Mus musculus; assay: Incidence of disease (mouse type II collagen) was scored as the percentage of animals within each experimental group that exhibited joint or limb inflammation on day 44 at intraperitoneal dose of 1.5 mg/kg; format: functional
[7] = tested on: Mus musculus; assay: Incidence of disease (mouse type II collagen) was scored as the percentage of animals within each experimental group that exhibited joint or limb inflammation on day 23 at intraperitoneal dose of 6 mg/kg; format: functional
[8] = tested on: Mus musculus; assay: Incidence of disease (mouse type II collagen) was scored as the percentage of animals within each experimental group that exhibited joint or limb inflammation on day 23 at intraperitoneal dose of 3 mg/kg; format: functional
[9] = tested on: Mus musculus; assay: Tested for antiinflammatory activity on mouse type II collagen arthritis as Paw swelling of all animals in each group on day 30 at intraperitoneal dose of 6 mg/kg; format: functional
[10] = tested on: Mus musculus; assay: Tested for antiinflammatory activity on mouse type II collagen arthritis as Paw swelling of all animals in each group on day 23 at intraperitoneal dose of 6 mg/kg; format: functional
[11] = tested on: Mus musculus; assay: Incidence of disease (mouse type II collagen) was scored as the percentage of animals within each experimental group that exhibited joint or limb inflammation on day 30 at intraperitoneal dose of 6 mg/kg; format: functional
[12] = tested on: Mus musculus; assay: Incidence of disease (mouse type II collagen) was scored as the percentage of animals within each experimental group that exhibited joint or limb inflammation on day 37 at intraperitoneal dose of 3 mg/kg; format: functional
[13] = Concentration required to inhibit the growth of chang liver cells.; format: functional; details: Homo sapiens
[14] = tested on: Mus musculus; assay: Tested for antiinflammatory activity on mouse type II collagen arthritis as Paw swelling of all animals in each group on day 44 at intraperitoneal dose of 6 mg/kg; format: functional
[15] = tested on: Mus musculus; assay: Tested for antiinflammatory activity on mouse type II collagen arthritis as Paw swelling of all animals in each group on day 30 at intraperitoneal dose of 3 mg/kg; format: functional
[16] = tested on: L1210; assay: Concentration required to inhibit the growth of L1210 cells.; format: functional, cell-based; details: Mus musculus
[17] = tested on: Mus musculus; assay: Tested for antiinflammatory activity on mouse type II collagen arthritis as Paw swelling of all animals in each group on day 44 at intraperitoneal dose of 3 mg/kg; format: functional
[18] = tested on: Mus musculus; assay: Incidence of disease (mouse type II collagen) was scored as the percentage of animals within each experimental group that exhibited joint or limb inflammation on day 44 at intraperitoneal dose of 3 mg/kg; format: functional
[19] = tested on: Mus musculus; assay: Tested for antiinflammatory activity on mouse type II collagen arthritis as Paw swelling of all animals in each group on day 37 at intraperitoneal dose of 1.5 mg/kg; format: functional
[20] = tested on: Mus musculus; assay: Tested for antiinflammatory activity on mouse type II collagen arthritis as Paw swelling of all animals in each group on day 23 at intraperitoneal dose of 3 mg/kg; format: functional
[21] = tested on: Mus musculus; assay: Incidence of disease (mouse type II collagen) was scored as the percentage of animals within each experimental group that exhibited joint or limb inflammation on day 44 at intraperitoneal dose of 6 mg/kg; format: functional
[22] = tested on: Mus musculus; assay: Tested for antiinflammatory activity on mouse type II collagen arthritis as Paw swelling of all animals in each group on day 44 at intraperitoneal dose of 1.5 mg/kg; format: functional
[23] = tested on: Mus musculus; assay: Tested for antiinflammatory activity on mouse type II collagen arthritis as Paw swelling of all animals in each group on day 37 at intraperitoneal dose of 6 mg/kg; format: functional
[24] = tested on: Mus musculus; assay: Incidence of disease (mouse type II collagen) was scored as the percentage of animals within each experimental group that exhibited joint or limb inflammation on day 37 at intraperitoneal dose of 6 mg/kg; format: functional
[25] = tested on: Mus musculus; assay: Incidence of disease (mouse type II collagen) was scored as the percentage of animals within each experimental group that exhibited joint or limb inflammation on day 30 at intraperitoneal dose of 1.5 mg/kg; format: functional
[26] = tested on: Mus musculus; assay: Tested for antiinflammatory activity on mouse type II collagen arthritis as Paw swelling of all animals in each group on day 30 at intraperitoneal dose of 1.5 mg/kg; format: functional

Compound	Paw swelling [1] [mm]	Paw swelling [2] [mm]	Animals [3] [%]	Animals [4] [%]	Animals [5] [%]	Animals [6] [%]	Animals [7] [%]	Animals [8] [%]	Paw swelling [9] [mm]	Paw swelling [10] [mm]	Animals [11] [%]	Animals [12] [%]	Paw swelling [15] [mm]	Paw swelling [17] [mm]	Animals [18] [%]	Paw swelling [19] [mm]	Paw swelling [20] [mm]	Animals [21] [%]	Paw swelling [22] [mm]	Animals [25] [%]	further results
Cc1c(CNc2ccc(C(=O)NC(CCC(=O)O)C(=O)O)cc2)cnc2nc(N)nc(N)c12 (stereo not drawn)	2.13	2.42	0	25	0	75	0	12	2.16	2.12	0	40	2.18	2.53	60	2.31	2.21	100	2.55	0	IC50 [13]: 0.123 µM; Paw swelling [14]: 2.59 mm; IC50 [16]: 0.0018 µM; Paw swelling [23]: 2.34 mm; Animals [24]: 100%
CCc1c(CN(C)c2ccc(C(=O)NC(CCC(=O)O)C(=O)O)s2)cnc2nc(N)nc(N)c12 (stereo not drawn)	2.24	2.2	0	38	25	50	0	0	2.13	2.12	0	12	2.15	2.45	88	2.26	2.14	50	2.37	12	Paw swelling [14]: 2.32 mm; Paw swelling [23]: 2.16 mm; Paw swelling [26]: 2.2 mm; Animals [24]: 12%
Cc1c(CN(C)c2ccc(C(=O)NC(CCC(=O)O)C(=O)O)cc2)cnc2nc(N)nc(N)c12 (stereo not drawn)	–	2.47	50	50	0	62	–	0	–	–	–	50	2.26	2.48	100	2.42	2.1	–	2.44	12	IC50 [13]: 0.078 µM; IC50 [16]: 0.0013 µM; Paw swelling [26]: 2.26 mm
CCCN(Cc1cnc2nc(N)nc(N)c2c1C)c1ccc(C(=O)NC(CCC(=O)O)C(=O)O)cc1 (stereo not drawn)	2.15	2.17	0	12	0	25	0	0	2.19	2.16	12	0	2.13	2.16	0	2.21	2.12	25	2.22	0	IC50 [13]: 0.014 µM; Paw swelling [14]: 2.24 mm; IC50 [16]: 0.011 µM; Paw swelling [23]: 2.2 mm; Paw swelling [26]: 2.15 mm; Animals [24]: 12%
C#CCN(Cc1cnc2nc(N)nc(N)c2c1C)c1ccc(C(=O)NC(CCC(=O)O)C(=O)O)cc1 (stereo not drawn)	2.16	–	25	50	0	62	12	0	2.21	2.23	25	50	2.27	2.38	62	2.33	2.12	62	2.37	25	IC50 [13]: 0.593 µM; Paw swelling [14]: 2.46 mm; IC50 [16]: 0.0016 µM; Paw swelling [23]: 2.32 mm; Paw swelling [26]: 2.31 mm; Animals [24]: 62%
CCCCc1c(CNc2ccc(C(=O)NC(CCC(=O)O)C(=O)O)cc2)cnc2nc(N)nc(N)c12 (stereo not drawn)	2.16	2.2	0	38	0	38	0	0	2.15	2.12	0	12	2.15	2.27	38	2.23	2.16	50	2.27	0	Paw swelling [14]: 2.29 mm; Paw swelling [23]: 2.27 mm; Paw swelling [26]: 2.17 mm; Animals [24]: 50%
CCC(Cc1cnc2nc(N)nc(N)c2c1)c1ccc(C(=O)NC(CCC(=O)O)C(=O)O)cc1 (stereo not drawn)	2.17	2.67	88	88	25	88	12	25	2.57	2.2	100	100	2.43	2.7	100	2.48	2.26	100	2.59	62	IC50 [13]: 0.012 µM; Paw swelling [14]: 2.76 mm; IC50 [16]: 0.075 µM; Paw swelling [23]: 2.8 mm; Paw swelling [26]: 2.31 mm; Animals [24]: 88%
Cc1c(CN(C)c2ccc(C(=O)NC(CCC(=O)O)C(=O)O)s2)cnc2nc(N)nc(N)c12 (stereo not drawn)	2.12	2.14	0	12	0	50	0	0	2.13	2.11	0	0	2.16	2.32	57	2.21	2.13	38	2.33	0	Paw swelling [23]: 2.19 mm; Animals [24]: 12%
C=CCN(Cc1cnc2nc(N)nc(N)c2c1CC)c1ccc(C(=O)NC(CCC(=O)O)C(=O)O)cc1 (stereo not drawn)	2.14	2.34	29	38	0	62	0	0	2.21	2.15	25	57	2.27	2.55	86	2.26	2.16	88	2.4	0	Paw swelling [14]: 2.45 mm; Paw swelling [23]: 2.28 mm; Paw swelling [26]: 2.18 mm; Animals [24]: 50%
